According to US20120021476A1, “Trace Element Solution For Biogas Methods” (AGRAFERM TECHNOLOGIES AG, priority 2007, published 2012):
Where two headings read alike, the source gives them in different places. Blank lines part the entries; values can stand above or below the compound they belong to. Residues, ends and D or L forms follow the SMILES beside them.

Tests used:
[1] = cited from earlier work
[2] = cited from earlier work; remark: listed apart in the source
[3] = cited from earlier work; remark: listed apart in the source
[4] = cited from earlier work; remark: listed apart in the source
[5] = cited from earlier work; remark: listed apart in the source
[6] = Concentrations of the trace elements in the fermentation residue with different complexing agents; format: physicochemical
From the text: In Table 1 the trace element solution according to the invention contains the complexing agent in a stoichiometric amount of 60% EDTA and 60% of a phosphoric acid mixture relative to the overall amount of trace elements, which is composed of identical molar amounts of pyrophosphoric acid (H4P2O7), polyphosphoric acid (H6P4O13), metaphosphoric acid (H4P4O12), hypophosphoric Acid (H3PO2) and phosphorus acid (phosphonic acid) (H3PO3).

[7] = as above; format: physicochemical; remark: listed apart in the source
[8] = cited from earlier work; remark: listed apart in the source
[9] = cited from earlier work; remark: listed apart in the source
[10] = cited from earlier work; remark: listed apart in the source
[11] = cited from earlier work; remark: listed apart in the source
[12] = cited from earlier work; remark: listed apart in the source
[13] = equimolar EDTA, neutral pH
From the text: If instead of EDTA, complexing agents are used which form complexes of two or several ligands of the complexing agent per metal atom, then a correspondingly multiple (double, multiple) molar amount of the relevant ligands must be used in order to complex the trace elements in the solution.

[14] = test system: aromatic amino acid synthesis; conditions: cited from earlier work
[15] = 100 × times metal versus Simple, 50% NTA
[16] = column after 50% NTA and citrate (500%), not the invention

Compound: O=C(O)CS [CH2(SH)COOH, mercaptoacetic acid (thio-glycol acid)]
- complexing of Fe^2+ in words [1]: very good
- complexing of Mn^2+ in words [2]: good
- complexing of Co^2+ in words [3]: very good
- complexing of Fe^3+ in words [4]: excellent
- complexing of Zn^2+ in words [5]: excellent

Compound: [Mn+2] [Mn, manganese]
- Bio-availability (Invention) [6]: 100%
- Bio-availability [7]: 31%
- Difference [7]: −99.2%

Compound: O=C(O)CNCCNCC(=O)O [EDDA, Ethylendiimine diacetic acid]
- complexing of Mn^2+ in words [2]: well
- complexing of Co^2+ in words [3]: very well
- complexing of Zn^2+ in words [5]: very well

Compound: CC(C)[C@H](N)C(=O)O [C5H11O2N, valine]
- complexing of Ni^2+ in words [8]: very well
- complexing of Cu^2+ in words [9]: very well
- complexing of Zn^2+ in words [5]: very well

Compound: [Cu] [Cu, copper]
- Bio-availability (Invention) ([6]; 60% EDTA 60% phosphoric acids): 0%
- Difference [7, 15]: −100.0%
- Bio-availability [7, 16]: 0%

Compound: N[C@@H](Cc1c[nH]cn1)C(=O)O [C6H9O2N3, Histidine]
- complexing of Ca^2+ in words [10]: poor
- complexing of Mn^2+ in words [2]: good
- complexing of Co^2+ in words [3]: very good
- complexing of Ni^2+ in words [8]: very good
- complexing of Cu^2+ in words [9]: very good
- complexing of Al^3+ in words [11]: good
- complexing of Zn^2+ in words [5]: very good

Compound: O=C(O)CC(S)C(=O)O (stereo not shown) [HOOCCH2CH(SH)COOH, Mercaptomalic acid]
- complexing of Ni^2+ in words [8]: well
- complexing of Zn^2+ in words [5]: well

Compound: O=P(O)(O)OP(=O)(O)O [H4P2O7, pyrophosphoric acid]
- complexing of Mg^2+ in words [12]: very strongly
- complexing of Mn^2+ in words [2]: very strongly

Compound: [Ca+2] [Ca, calcium]
- Bio-availability (Invention) [6]: 100%
- Difference [7, 15]: 38.2%
- Bio-availability [7, 16]: 100%

Compound: CC(=O)C(=O)O [CH3(C═O)COOH, oxopropionic acid (pyruvic acid, pyruvate)]
- complexing of Fe^2+ in words [1]: somewhat more poorly
- complexing of Co^2+ in words [3]: somewhat more poorly
- complexing of Ni^2+ in words [8]: somewhat more poorly
- complexing of Cu^2+ in words [9]: in small amounts

Compound: CC(C)[C@H](N)C(=O)N[C@H](C(=O)O)C(C)C [L-valyl-L-valine] (H-Val-Val-OH)
- complexing of Ni^2+ in words [8]: very good

Compound: O=C(O)c1ccccc1O [(C6H4)(OH)(COOH), Salicylic acid]
- complexing of Mn^2+ in words [2]: very good
- complexing of Co^2+ in words [3]: very good
- complexing of Ni^2+ in words [8]: very good
- complexing of Cu^2+ in words [9]: very good
- complexing of Fe^3+ in words [4]: excellent
- complexing of Zn^2+ in words [5]: good

- precipitation in the presence of H2S [13]: no precipitation
Compound: O=C(O)CN(CCN(CC(=O)O)CC(=O)O)CC(=O)O [C10H16O8N2, ethylenediaminetetraacetic acid]
- complexing of Mg^2+ in words [12]: well
- complexing of Ca^2+ in words [10]: very well
- complexing of Fe^2+ in words [1]: very well
- complexing of Mn^2+ in words [2]: very well
- complexing of Co^2+ in words [3]: very well
- complexing of Ni^2+ in words [8]: very well
- complexing of Cu^2+ in words [9]: very well
- complexing of Fe^3+ in words [4]: extremely well
- complexing of Zn^2+ in words [5]: very well

Compound: O=C(O)CC(O)(CC(=O)O)C(=O)O [HOOCCH2C(OH)(COOH)CH2COOH, Citric acid]
- complexing of Co^2+ in words [3]: good
- complexing of Ni^2+ in words [8]: good
- complexing of Cu^2+ in words [9]: good
- complexing of Fe^3+ in words [4]: good

Compound: [Ni] [Ni, nickel]
- Bio-availability (Invention) [6]: 100%
- Bio-availability [7]: 0%
- Difference [7]: −100.0%
- available share of the added volume [7]: 2 ppm
- bio-availability in words [7]: hardly bio-available at all

Compound: CC(=O)CC(C)=O [CH3(C═O)CH2(C═O)CH3, acetylacetone]
- complexing of Mg^2+ in words [12]: moderately well
- complexing of Fe^2+ in words [1]: moderately well
- complexing of Mn^2+ in words [2]: moderately well
- complexing of Co^2+ in words [3]: moderately well
- complexing of Ni^2+ in words [8]: well
- complexing of Cu^2+ in words [9]: well
- complexing of Al^3+ in words [11]: extremely well
- complexing of Fe^3+ in words [4]: extremely well

Compound: [Fe] [Fe, iron]
- Bio-availability (Invention) ([6]; 60% EDTA 60% phosphoric acids): 100%
- Difference [7, 15]: 4260.1%
- Bio-availability [7, 16]: 100%

- Bio-availability (Invention) ([6]; 60% EDTA 60% phosphoric acids): 100%
- Difference [7, 15]: 9931.3%
- Bio-availability [7, 16]: 100%
Compound: [Al] [Al]

Compound: O=C(O)CNCP(=O)(O)O [C3H8O5NP, n-phosphomethylglicine]
- effect on aromatic amino acid synthesis [14]: inhibits the aromatic amino acid synthesis

Compound: N[C@@H](CSSC[C@H](N)C(=O)O)C(=O)O [C6H12O4N2S2, cystine]
- complexing of Ni^2+ in words [8]: very well
- complexing of Cu^2+ in words [9]: excellent
- complexing of Zn^2+ in words [5]: very well

Compound: N[C@@H](CCC(=O)O)C(=O)O [C5H9O4N, Glutamic acid]
- complexing of Ni^2+ in words [8]: very well
- complexing of Cu^2+ in words [9]: very well
- complexing of Zn^2+ in words [5]: not so well

Compound: O=C[C@H](O)[C@@H](O)[C@@H](O)[C@H](O)C(=O)O [C6H10O7, galacturonic acid]
- complexing of Fe^2+ in words [1]: very well

Compound: C[C@@H](O)[C@H](N)C(=O)O [C4H9O3N, Threonine]
- complexing of Co^2+ in words [3]: good
- complexing of Cu^2+ in words [9]: very well
- complexing of Zn^2+ in words [5]: good

Compound: O=C(O)CC(O)C(=O)O (stereo not shown) [HOOCCH2CH(OH)COOH, malic acid]
- complexing of Al^3+ in words [11]: good
- complexing of Fe^3+ in words [4]: good

Compound: O=C(O)C(=O)O [(COOH)2, Oxalic acid]
- complexing of Ca^2+ in words [10]: precipitates
- complexing of Fe^2+ in words [1]: moderate
- complexing of Co^2+ in words [3]: moderate
- complexing of Ni^2+ in words [8]: moderate
- complexing of Cu^2+ in words [9]: moderate
- complexing of Fe^3+ in words [4]: good
- complexing of Zn^2+ in words [5]: moderate

Compound: O=C(O)c1cc(=O)[nH]c(=O)[nH]1 [C5H4O4N2, Orotic acid]
- complexing of Co^2+ in words [3]: able to complex
- complexing of Ni^2+ in words [8]: able to complex
- complexing of Cu^2+ in words [9]: able to complex

Compound: N[C@@H](CS)C(=O)O [C3H7O2NS, Cysteine]
- complexing of Co^2+ in words [3]: extremely well
- complexing of Ni^2+ in words [8]: extremely well

Compound: OB(O)O [H3O3B, boric acid]
- complexing of Mg^2+ in words [12]: only with difficulty
- complexing of Ca^2+ in words [10]: only with difficulty
- complexing of Fe^3+ in words [4]: very good

Compound: meso-malic acid
- complexing of Al^3+ in words [11]: good
- complexing of Fe^3+ in words [4]: good

Compound: N[C@@H](CC(=O)O)C(=O)O [C4H7O4N, Aspartic acid]
- complexing of Ni^2+ in words [8]: very well
- complexing of Cu^2+ in words [9]: very well
- complexing of Al^3+ in words [11]: only moderately
- complexing of Zn^2+ in words [5]: very well

Compound: CC(O)C(=O)O (stereo not shown) [CH3CH(OH)COOH, 2-hydroxypropionic acid (lactic acid)]
- complexing of Fe^2+ in words [1]: somewhat more poorly
- complexing of Co^2+ in words [3]: somewhat more poorly
- complexing of Ni^2+ in words [8]: somewhat more poorly
- complexing of Cu^2+ in words [9]: in small amounts

Compound: [Zn] [Zn, zinc]
- Bio-availability (Invention) [6]: 100%
- bio-availability in words ([7]; 50% NTA): hardly bio-available at all
- Difference [7, 15]: −100.0%
- Bio-availability [7, 16]: 0%

Compound: N[C@@H](Cc1ccccc1)C(=O)O [C9H11O2N, phenylalanine]
- complexing of Cu^2+ in words [9]: very good
- complexing of Zn^2+ in words [5]: very good

Compound: [Co] [Co, cobalt]
- Bio-availability (Invention) [6]: 100%
- bio-availability in words ([7]; 50% NTA): hardly bio-available at all
- Difference [7, 15]: −100.0%
- Bio-availability [7, 16]: 0%

Compound: NCCCC[C@H](N)C(=O)O [C6H14O2N2, lysine]
- complexing of Ni^2+ in words [8]: very good
- complexing of Cu^2+ in words [9]: very good
- complexing of Zn^2+ in words [5]: well

Compound: [Mg+2] [Mg, magnesium]
- Bio-availability (Invention) ([6]; 60% EDTA 60% phosphoric acids): 100%
- Difference [7, 15]: 9698.1%
- Bio-availability [7, 16]: 100%

Compound: O=CC(=O)O [C2H2O3, oxoethanoic acid]
- complexing of Fe^2+ in words [1]: somewhat more poorly
- complexing of Co^2+ in words [3]: somewhat more poorly
- complexing of Ni^2+ in words [8]: somewhat more poorly
- complexing of Cu^2+ in words [9]: in small amounts
